Reference: US20250127167A1, “ANTIMICROBIAL PEPTIDES” (priority 2021, published 2025)
“Also recorded” adds a separate entry of the source. Where two headings read alike, the source gives them in different places. Where a SMILES comes first, the peptide text is derived from it. [ ]: non-standard residue; d: D form. Phe(4-F) = N[C@@H](Cc1ccc(F)cc1)C(=O)O; Dopa = N[C@@H](Cc1ccc(O)c(O)c1)C(=O)O

Legend:
T4 bacteriophage [1] = test system: T4 bacteriophage
Protocol: All the tripeptide powders were firstly dissolved into ethanol and diluted by TDW. The solutions were stirring for 3 h (150 rpm, room temperature) for complete self-assembly. The final concentration is 10 mg/mL. […] As a control, single amino acids (L-DOPA, L-Phenylalanine, and 4-Fluoro-L-phenylalanine) were also used to examine their antiviral activity. To further evaluate the antiviral activity for the peptide assemblies, the antiviral MIC for traditional Ag and Cu nanoparticles were also tested. The stock solutions were two-fold diluted using LB phage to obtain a series of peptide concentrations until the lowest concentration needed was achieved. Next, the 100 μL T4 bacteriophage (10^5 PFU/mL) and 100 μL diluted peptide solutions were transferred into 800 μL LB phage and then the samples were shaken at 150 rpm at room temperature. After 24 h incubation, the samples were centrifuged at 14000 g for 10 min to precipitate the peptide particles. Supernatants were collected and then 10-fold diluted once. Then, the 20 μL supernatants were mixed with 25 μL bacteria (E. coli. ATCC11303) in 1 mL warm 0.6% agarose. Then the mixture was spread out on 1.5% LB agar to form a double agar layer. The plate was incubated at 37° C. for 18 h to form the plaques. The lowest concentration of peptides that prevented virus growth is defined as the antiviral minimum inhibitory concentration (MIC).
A series of two-fold diluted peptide solutions (1000, 500, 250, 125, 62.5, 31.25, 15.625, and 7.8125 µg/mL) was prepared to measure the antiviral MIC. Next, 100 μL T4 bacteriophage (10^5 PFU/mL) and 100 μL diluted peptide solutions were transferred into 800 μL LB phage; then, the samples were shaken at 150 rpm at room temperature. After 24 h incubation, the samples were centrifuged at 14000×g for 10 min to precipitate the peptide particles. Supernatants were collected and then 10-fold diluted once. Next, the 20 μL supernatants were mixed with 25 μL bacteria (E. coli. ATCC11303) in 1 mL of warm 0.6% agarose. Then, the mixture was spread out on 1.5% LB agar to form a double agar layer. The plate was incubated at 37° C. for 18 h to form plaques. The lowest concentration of peptides that prevented virus growth is defined as the antiviral minimum inhibitory concentration (MIC). L-DOPA, L-phenylalanine, L-Phe(4F), Phe(4F)-Phe(4F), and diphenylalanine were used as controls.

T4 bacteriophage [2] = test: Antiviral activity for coatings against T4 bacteriophage (bacteriophage plaque assay); type: cell-based, Escherichia coli bacteriophage T4; conditions: for virus titer of bacteriophage T4 on dipeptide coatings: 10 mg/mL drop-casted three times, bare glass 29000±2000 PFU/mL; for virus titer of bacteriophage T4 on dipeptide coatings / viral titer of T4 bacteriophage / virus titer of T4 bacteriophage: 24 h; for reduction of the viral titer by dipeptide coatings: versus bare glass; for virus titer of T4 bacteriophage: 3-layer coating on glass, bare glass 13579±2839
Protocol: The antiviral activity performance was measured according to work by Kim et al. and Matsumoto et al. with some modification. The peptide coatings were prepared as described before. We used T4 bacteriophage as the virus when we measured the antiviral activity. Bacteriophage suspension was propagated on E. coli (ATCC 11303) according to ISO 18061, which was grown as the host strain. The mixture obtained by adding 100 μL of fresh T4 phage to an overnight culture of E. coli was incubated for 4 h in a 10 mL LB phage at 37° C. After multiplication, the virus was collected by centrifugation at 4000×g for 10 min at room temperature. The concentration of T4 bacteriophage was measured using the soft agar overlay (double-agar layer) plaque assay method. The supernatant containing the bacteriophage culture was filtrated through cellulose acetate filters (Millipore Acrodisc; the pore sizes were 0.45 μm and 0.22 μm) before use (the final concentration of bacteriophage was 10^9 PFU/mL).
Ten decimal serial dilutions of the virus suspension were prepared by LB phage. The aqueous suspensions for the E. coli and T4 bacteriophage inactivation experiments contained sample surfaces having dimensions of 1*1 cm and T4 phage at 1.0×10^6 plaque-forming units (PFU)/mL. As a positive control, we also added 16 μL 1.0×10^6 plaque-forming units (PFU)/mL bacteriophage T4 on bare glass and then treated the surface by a UV irradiation (long wave ultraviolet 365 nm) for 3 h. Next, the phages were incubated under humid conditions at room temperature (25° C.) in a dark room for 24 h. After incubation, the phages were harvested by shaking with 2 mL SCDLP broth for 15 min to stop the incubation. The T4 in SCDLP bacteriophage was diluted with LB phage 10-fold. Subsequently, samples and bacteria were mixed with 0.6% agarose. Then the mixture was spread out on 1.5% LB agar to form a double agar layer. The plate was incubated at 37° C. for 18 h to form the plaques. The antiviral activity was defined and calculated as eq 2 below: The initial virus titer (No) and the virus titer after incubation (N) were calculated by counting the plaque number. For each sample, 9 repeats were performed to assess the antiviral activity.
The antiviral activity performance was measured according to our previous work. Briefly, 10 decimal serial dilutions of the virus suspension were prepared by LB phage. The aqueous suspensions for the E. coli and T4 bacteriophage inactivation experiments contained sample surfaces with dimensions of 1*1 cm and T4 phage at 1.0×106 plaque-forming units (PFU)/mL. Next, the phages were incubated under humid conditions at room temperature (25° C.) in a dark room for 24 h. After incubation, the phages were harvested by shaking them with 2 mL SCDLP broth for 15 min to stop the incubation. The T4 in the SCDLP bacteriophage was diluted with LB phage 10-fold. Subsequently, samples and bacteria were mixed with 0.6% agarose. Then, the mixture was spread out on 1.5% LB agar to form a double agar layer. The plate was incubated at 37° C. for 18 h to form the plaques. The antiviral activity was defined and calculated as follows: The initial virus titer (NO) and the virus titer after incubation (N) were calculated by counting the plaque number. For each sample, 9 repeats were performed to assess the antiviral activity.

Canine coronavirus (CCV) = type: cell-based; conditions: for log (TCID50/mL) of CCV: 3-layer coating, 3 h incubation, uncoated glass 4.77±0.12; for effect on CCV (in words): 3-layer coatings / controls
[3] = Stability of peptide coatings (XPS after immersing or washing); type: physicochemical; conditions: 3-layer coating
Protocol: X-ray photoelectron spectroscopy (XPS) analyses were performed by using an AXIS Ultra X-ray photoelectron spectrometer (Kratos Analytical, Ltd., Manchester, UK). The sample's take-off angle was 90°. The vacuum pressure in the analyzing chamber was maintained at 2×10^−9 Torr. High-resolution XPS spectra were collected for F is, O is, C is, and N is peaks with 20 eV pass energy and 0.1 eV step size. Data analyses were carried out using Kratos Vision data reducing processing software (Kratos Analytical, Ltd.) and Casa XPS (Casa Software, Ltd.).
(§1) To examine the coating stabilities, peptide coatings were immersed into TDW for 5 min or washed with 2 mL TDW three times and then dried at room temperature. X-ray photoelectron spectroscopy (XPS) analyses were performed for the immersed and washed coatings. Moreover, peptide coatings were wiped with a finger at a load of 1 g and then water contact angle measurements were performed using the same method as described in the Contact angle measurements section.

[4] = Water contact angle measurements of coated glass; type: physicochemical; conditions: for water contact angle after wiping: 3-layer coating, wiped at a load of 1 g
Protocol: Contact angle measurements were examined by using a Theta Lite optical tensiometer (Attension, Finland). Each experimental measurement consisted of three repeats.
as §1

fruit and plant viruses = test: Antiviral activity against fruit viruses
Text: The potential antiviral activity of DOPA-Phe(Br)—OH against fruit viruses and other microbial sources was also investigated.

[5] = Table 1, tripeptide assemblies, single amino acids and metal nanoparticles, 24 h incubation

Molecule: NC(=O)[C@H](Cc1ccc(F)cc1)NC(=O)[C@@H](N)Cc1ccc(O)c(O)c1 [DOPA-Phe(4F)-NH2] (H-[Dopa]-[Phe(4-F)]-NH2)
- antiviral activity against T4 bacteriophage (in words) (T4 bacteriophage [1]; in solution): exhibited antiviral activity
- Antiviral MIC (T4 bacteriophage [1]; in solution, T4 bacteriophage): 62.5 µg/mL
- virus titer of bacteriophage T4 on dipeptide coatings (T4 bacteriophage [2]): no viruses were detected
- reduction of the viral titer by dipeptide coatings (T4 bacteriophage [2]): ~4 logs

Molecule: COC(=O)[C@H](Cc1ccc(F)cc1)NC(=O)[C@H](Cc1ccc(F)cc1)NC(=O)[C@@H](N)Cc1ccc(O)c(O)c1 [DOPA-Phe(4F)-Phe(4F)-OMe] (H-[Dopa]-[Phe(4-F)]-[Phe(4-F)]-OMe; N-terminus assumed)
- log (TCID50/mL) of CCV (Canine coronavirus (CCV)): below the detection limit
- XPS signals after immersing in TDW for 5 min or washing three times [3]: did not decrease
- water contact angle ([4]; 1 layer on glass, bare glass 12±2°): 23±2 °
- water contact angle ([4]; 2 layers on glass): 34±2 °
- water contact angle after wiping [4]: 33±1 °
- water contact angle ([4]; 3 layers on glass): 38±4 °
- Antiviral MIC (T4 bacteriophage [1]; [5]): 31 µg/mL
- reduction of viral titer compared with bare glass (T4 bacteriophage [2]; 1 layer coating): 79%
- reduction rate (log (N/No)) of virus titers (T4 bacteriophage [2]; 1 layer coating): −0.7
- viral titer of T4 bacteriophage (T4 bacteriophage [2]; 1 layer coating on glass): 2610±369 PFU/mL
- reduction of viral titer compared with bare glass (T4 bacteriophage [2]; 2 layers coating): 91%
- reduction rate (log (N/No)) of virus titers (T4 bacteriophage [2]; 2 layers coating): −1.1
- viral titer of T4 bacteriophage (T4 bacteriophage [2]; 2 layers coating on glass): 1111±201 PFU/mL
- reduction of virus titers compared to the glass surfaces (T4 bacteriophage [2]; 3-layer coating): 3 log
- reduction of virus titers compared to the stock solution (T4 bacteriophage [2]; 3-layer coating): 6 log
- virus titer of T4 bacteriophage (T4 bacteriophage [2]): 3±6 PFU/mL
- reduction of viral titer compared with bare glass (T4 bacteriophage [2]; 3 layer coating): 99.9%
- reduction rate (log (N/No)) of virus titers (T4 bacteriophage [2]; 3 layers coating): −3.7

Molecule: NC(=O)[C@H](Cc1ccccc1)NC(=O)[C@@H](N)Cc1ccc(O)c(O)c1 [DOPA-Phe-NH2] (H-[Dopa]-Phe-NH2; N-terminus assumed)
- Antiviral MIC (T4 bacteriophage [1]; 24 h): 125.00 µg/mL
- antiviral activity against T4 bacteriophage (in words) (T4 bacteriophage [1]; in solution): exhibited antiviral activity
- Antiviral MIC (T4 bacteriophage [1]; in solution, T4 bacteriophage): 125 µg/mL
- virus titer of bacteriophage T4 on dipeptide coatings (T4 bacteriophage [2]): no viruses were detected
- reduction of the viral titer by dipeptide coatings (T4 bacteriophage [2]): ~4 logs

Molecule: COC(=O)[C@H](Cc1ccccc1)NC(=O)[C@H](Cc1ccccc1)NC(=O)[C@@H](N)Cc1ccc(O)c(O)c1 [DOPA-Phe-Phe-OMe] (H-[Dopa]-Phe-Phe-OMe; N-terminus assumed)
- log (TCID50/mL) of CCV (Canine coronavirus (CCV)): below the detection limit
- XPS signals after immersing in TDW for 5 min or washing three times [3]: did not change appreciably
- water contact angle after wiping [4]: 25±2 °
- water contact angle ([4]; 3 layers on glass): 29±1 °
- Antiviral MIC (T4 bacteriophage [1]; [5]): 62 µg/mL
- reduction of virus titers compared to the glass surfaces (T4 bacteriophage [2]; 3-layer coating): 0.2 log
- virus titer of T4 bacteriophage (T4 bacteriophage [2]): 8029±205 PFU/mL
- reduction rate (log (N/No)) of virus titers (T4 bacteriophage [2]; 3 layers coating): −0.2

Molecule: N[C@@H](Cc1ccc(O)c(O)c1)C(=O)O [L-DOPA, 3,4-dihydroxy-L-phenylalanine]
- log (TCID50/mL) of CCV (Canine coronavirus (CCV)): 4.37±0.31 log (TCID50/mL)
- effect on CCV (in words) (Canine coronavirus (CCV)): do not appreciably affect the viability of CCV
- effect on CCV (in words) (Canine coronavirus (CCV); listed as DOPA): did not show any antiviral activity
- antiviral activity against T4 bacteriophage (in words) (T4 bacteriophage [1]; in solution, listed as DOPA): did not show any antiviral activity
- antiviral activity of drop-casted controls against T4 bacteriophage (in words) (T4 bacteriophage [2]; drop-casted three times / deposited on glass, compared to a glass surface): did not decrease the viral titers

Molecule: N[C@@H](Cc1ccc(F)cc1)C(=O)O [L-Phe(4F), 4-Fluoro-L-phenylalanine]
- antiviral activity against T4 bacteriophage (in words) (T4 bacteriophage [1]; in solution): did not decrease the viral titer
- antiviral activity against T4 bacteriophage (in words) (T4 bacteriophage [1]; in solution, listed as 4-Fluoro-L-phenylalanine): no antiviral activity

Molecule: N[C@@H](Cc1ccccc1)C(=O)O [L-Phe, L-phenylalanine]
- effect on CCV (in words) (Canine coronavirus (CCV)): did not show any antiviral activity
- antiviral activity against T4 bacteriophage (in words) (T4 bacteriophage [1]; in solution, listed as L-Phenylalanine): no antiviral activity

Molecule: DOPA-Phe(Br)—NH2
- eradication of fruit and plant viruses (fruit and plant viruses): capable of eradicating fruit and plant viruses

Molecule: DOPA-Phe(Br)—OH
- eradication of fruit and plant viruses (fruit and plant viruses): capable of eradicating fruit and plant viruses

Molecule: H-Phe-Phe-OH [Diphenylalanine]
- log (TCID50/mL) of CCV (Canine coronavirus (CCV)): 4.67±0.42 log (TCID50/mL)
- effect on CCV (in words) (Canine coronavirus (CCV)): do not appreciably affect the viability of CCV; also recorded: did not show any antiviral activity
- antiviral activity against T4 bacteriophage (in words) (T4 bacteriophage [1]; in solution, listed as Phe-Phe): did not decrease the viral titer
- antiviral activity against T4 bacteriophage (in words) (T4 bacteriophage [1]; in solution, listed as diphenylalanine): did not show any antiviral activity
- antiviral activity of drop-casted controls against T4 bacteriophage (in words) (T4 bacteriophage [2]): did not decrease the viral titers; also recorded: did not exhibit antiviral activity

Molecule: Phe(4F)-Phe(4F)—OMe [Phe(4F)-Phe(4F)-Ome]
- antiviral activity against T4 bacteriophage (in words) (T4 bacteriophage [1]; in solution): did not decrease the viral titer
